In series [1] the test system is mice or rats. Conditions: in vivo.
Series [2] in a line: in vivo.
Series [3] has as its system human. The settings on record: human clinical trials; cited from earlier work.

No end group written: not given here.

The half-life is how long it takes for the measured level to halve. For VGDGGLFEKKL [Peptide P6, VGDGGLFEKKL], the “adverse effects associated with the full-length protein (CNTF)” value in series [1] is “does not cause adverse effects associated with the full-length protein”. Also, the half-life in series [2] is more than 360 min.

B1: recombinant CNTF: recombinant full-length ciliary neurotrophic factor (protein, UniProt P26441 1-200, looked up)
chain: MAFTEHSPLTPHRRDLCSRSIWLARKIRSDLTALTESYVKHQGLNKNINLDSADGMPVASTDQWSELTEAERLQENLQAYRTFHVLLARLLEDQQVHFTPTEGDFHQAIHTLLLQVAAFAYQIEELMILLEYKIPRNEADGMPINVGDGGLFEKKLWGLKVLQELSQWTVRSIHDLRFISSHQTGIPARGSHYIANNKKM
modifications: full-length
notes: recombinant full-length ciliary neurotrophic factor
On to B1, for which the adverse effects result in series [3] was “anorexia, skeletal muscle loss, hyperalgesia, severe cramps, and muscle pain”.

(Values after patent publication US9737587B2, “Treatment of autism spectrum disorders with ciliary neurotrophic factor peptide mimetic” (The Research Foundation for Mental Hygiene, Inc., priority 2014, dated 2017).)
